Paper PMC10650756, “Synthesis and In Vivo Antiarrhythmic Activity Evaluation of Novel Scutellarein Analogues as Voltage-Gated Nav1.5 and Cav1.2 Channels Blockers” (Molecules, 2023)

Columns and labels:
Assay type in all cases: cell-based
Nav1.5 = biological target: T1, Nav1.5 (Homo sapiens, UniProt Q14524); test: whole-cell patch clamp in transfected HEK293 cells; steady-state inactivation left-shifted at […], no change in current density or activation
T1 construct: gene SCN5A; human Nav1.5 (pCDNA3.1hSCN5A) expressed in HEK293 cells

Cav1.2 [1] = biological target: T2, Cav1.2 (Homo sapiens, UniProt Q13936); test: whole-cell patch clamp of ICa in transfected HEK293 cells, VH -80 mV; IC50 undefined (solubility); conditions: read-out: % reduction of ICa amplitude at 30 μM
T2 construct: gene CACNA1C; human Cav1.2 expressed in HEK293 cells (plasmid printed as pCDNA3.1hCACNA2D)

Cav1.2 [2] = biological target: T2, Cav1.2; test: whole-cell patch clamp of ICa in transfected HEK293 cells, VH -80 mV; conditions: read-out: % reduction of ICa amplitude at 1 μM

T2 sequence (Q13936 whole entry): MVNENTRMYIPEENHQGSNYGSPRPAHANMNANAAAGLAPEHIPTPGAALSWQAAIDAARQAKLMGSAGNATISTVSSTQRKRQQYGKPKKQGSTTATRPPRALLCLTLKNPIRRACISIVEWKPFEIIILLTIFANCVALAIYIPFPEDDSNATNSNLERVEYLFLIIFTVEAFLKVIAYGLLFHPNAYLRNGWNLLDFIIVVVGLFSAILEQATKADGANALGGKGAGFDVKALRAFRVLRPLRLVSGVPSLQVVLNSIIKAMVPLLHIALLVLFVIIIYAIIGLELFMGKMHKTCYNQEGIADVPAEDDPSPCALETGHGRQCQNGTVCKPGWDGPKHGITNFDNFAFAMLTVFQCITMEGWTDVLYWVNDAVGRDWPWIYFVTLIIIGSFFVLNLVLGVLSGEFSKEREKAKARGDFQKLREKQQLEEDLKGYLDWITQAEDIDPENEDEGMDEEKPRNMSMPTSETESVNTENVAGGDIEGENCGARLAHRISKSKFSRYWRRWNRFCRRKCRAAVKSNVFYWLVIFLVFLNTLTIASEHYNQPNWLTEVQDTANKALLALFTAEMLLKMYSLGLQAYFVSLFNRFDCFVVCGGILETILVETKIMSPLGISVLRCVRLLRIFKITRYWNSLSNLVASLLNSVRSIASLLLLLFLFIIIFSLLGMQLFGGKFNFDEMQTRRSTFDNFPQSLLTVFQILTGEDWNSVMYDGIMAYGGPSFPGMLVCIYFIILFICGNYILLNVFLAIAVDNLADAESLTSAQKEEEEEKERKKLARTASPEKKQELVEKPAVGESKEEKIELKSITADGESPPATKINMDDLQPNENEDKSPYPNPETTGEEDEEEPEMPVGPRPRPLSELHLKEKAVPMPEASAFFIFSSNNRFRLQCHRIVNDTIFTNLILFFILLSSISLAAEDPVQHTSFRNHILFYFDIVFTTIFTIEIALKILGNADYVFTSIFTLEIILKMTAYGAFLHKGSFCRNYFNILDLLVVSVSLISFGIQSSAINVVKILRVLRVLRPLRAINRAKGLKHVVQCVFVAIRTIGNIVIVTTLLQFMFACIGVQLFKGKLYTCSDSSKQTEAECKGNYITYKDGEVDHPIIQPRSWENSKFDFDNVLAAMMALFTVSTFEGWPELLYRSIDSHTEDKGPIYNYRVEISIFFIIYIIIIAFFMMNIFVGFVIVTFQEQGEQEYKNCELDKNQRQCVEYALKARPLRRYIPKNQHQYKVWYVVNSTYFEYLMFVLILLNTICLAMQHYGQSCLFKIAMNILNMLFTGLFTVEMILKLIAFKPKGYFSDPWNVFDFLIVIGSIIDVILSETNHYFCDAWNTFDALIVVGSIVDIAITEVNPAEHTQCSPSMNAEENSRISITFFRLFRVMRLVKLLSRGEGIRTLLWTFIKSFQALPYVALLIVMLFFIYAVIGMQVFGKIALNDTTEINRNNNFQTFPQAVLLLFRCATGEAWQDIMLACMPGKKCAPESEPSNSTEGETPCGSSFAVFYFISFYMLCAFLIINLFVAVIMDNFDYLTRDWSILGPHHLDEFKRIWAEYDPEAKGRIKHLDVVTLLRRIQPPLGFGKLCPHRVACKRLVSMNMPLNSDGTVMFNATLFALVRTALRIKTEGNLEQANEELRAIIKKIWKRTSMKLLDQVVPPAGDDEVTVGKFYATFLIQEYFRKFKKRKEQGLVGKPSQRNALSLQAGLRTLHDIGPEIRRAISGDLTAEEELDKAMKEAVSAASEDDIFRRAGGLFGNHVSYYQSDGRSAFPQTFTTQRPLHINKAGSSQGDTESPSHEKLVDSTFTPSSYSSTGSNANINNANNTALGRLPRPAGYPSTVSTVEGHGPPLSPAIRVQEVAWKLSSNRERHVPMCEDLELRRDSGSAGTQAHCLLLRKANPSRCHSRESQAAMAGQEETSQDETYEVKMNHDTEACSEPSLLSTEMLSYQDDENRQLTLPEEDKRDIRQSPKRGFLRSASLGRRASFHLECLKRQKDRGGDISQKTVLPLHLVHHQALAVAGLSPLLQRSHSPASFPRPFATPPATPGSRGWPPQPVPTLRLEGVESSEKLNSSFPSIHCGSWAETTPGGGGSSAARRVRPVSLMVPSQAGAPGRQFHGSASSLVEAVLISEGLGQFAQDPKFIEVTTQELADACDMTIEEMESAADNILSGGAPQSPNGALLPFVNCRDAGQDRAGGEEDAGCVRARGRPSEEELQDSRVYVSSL
T1 sequence (Q14524 whole entry): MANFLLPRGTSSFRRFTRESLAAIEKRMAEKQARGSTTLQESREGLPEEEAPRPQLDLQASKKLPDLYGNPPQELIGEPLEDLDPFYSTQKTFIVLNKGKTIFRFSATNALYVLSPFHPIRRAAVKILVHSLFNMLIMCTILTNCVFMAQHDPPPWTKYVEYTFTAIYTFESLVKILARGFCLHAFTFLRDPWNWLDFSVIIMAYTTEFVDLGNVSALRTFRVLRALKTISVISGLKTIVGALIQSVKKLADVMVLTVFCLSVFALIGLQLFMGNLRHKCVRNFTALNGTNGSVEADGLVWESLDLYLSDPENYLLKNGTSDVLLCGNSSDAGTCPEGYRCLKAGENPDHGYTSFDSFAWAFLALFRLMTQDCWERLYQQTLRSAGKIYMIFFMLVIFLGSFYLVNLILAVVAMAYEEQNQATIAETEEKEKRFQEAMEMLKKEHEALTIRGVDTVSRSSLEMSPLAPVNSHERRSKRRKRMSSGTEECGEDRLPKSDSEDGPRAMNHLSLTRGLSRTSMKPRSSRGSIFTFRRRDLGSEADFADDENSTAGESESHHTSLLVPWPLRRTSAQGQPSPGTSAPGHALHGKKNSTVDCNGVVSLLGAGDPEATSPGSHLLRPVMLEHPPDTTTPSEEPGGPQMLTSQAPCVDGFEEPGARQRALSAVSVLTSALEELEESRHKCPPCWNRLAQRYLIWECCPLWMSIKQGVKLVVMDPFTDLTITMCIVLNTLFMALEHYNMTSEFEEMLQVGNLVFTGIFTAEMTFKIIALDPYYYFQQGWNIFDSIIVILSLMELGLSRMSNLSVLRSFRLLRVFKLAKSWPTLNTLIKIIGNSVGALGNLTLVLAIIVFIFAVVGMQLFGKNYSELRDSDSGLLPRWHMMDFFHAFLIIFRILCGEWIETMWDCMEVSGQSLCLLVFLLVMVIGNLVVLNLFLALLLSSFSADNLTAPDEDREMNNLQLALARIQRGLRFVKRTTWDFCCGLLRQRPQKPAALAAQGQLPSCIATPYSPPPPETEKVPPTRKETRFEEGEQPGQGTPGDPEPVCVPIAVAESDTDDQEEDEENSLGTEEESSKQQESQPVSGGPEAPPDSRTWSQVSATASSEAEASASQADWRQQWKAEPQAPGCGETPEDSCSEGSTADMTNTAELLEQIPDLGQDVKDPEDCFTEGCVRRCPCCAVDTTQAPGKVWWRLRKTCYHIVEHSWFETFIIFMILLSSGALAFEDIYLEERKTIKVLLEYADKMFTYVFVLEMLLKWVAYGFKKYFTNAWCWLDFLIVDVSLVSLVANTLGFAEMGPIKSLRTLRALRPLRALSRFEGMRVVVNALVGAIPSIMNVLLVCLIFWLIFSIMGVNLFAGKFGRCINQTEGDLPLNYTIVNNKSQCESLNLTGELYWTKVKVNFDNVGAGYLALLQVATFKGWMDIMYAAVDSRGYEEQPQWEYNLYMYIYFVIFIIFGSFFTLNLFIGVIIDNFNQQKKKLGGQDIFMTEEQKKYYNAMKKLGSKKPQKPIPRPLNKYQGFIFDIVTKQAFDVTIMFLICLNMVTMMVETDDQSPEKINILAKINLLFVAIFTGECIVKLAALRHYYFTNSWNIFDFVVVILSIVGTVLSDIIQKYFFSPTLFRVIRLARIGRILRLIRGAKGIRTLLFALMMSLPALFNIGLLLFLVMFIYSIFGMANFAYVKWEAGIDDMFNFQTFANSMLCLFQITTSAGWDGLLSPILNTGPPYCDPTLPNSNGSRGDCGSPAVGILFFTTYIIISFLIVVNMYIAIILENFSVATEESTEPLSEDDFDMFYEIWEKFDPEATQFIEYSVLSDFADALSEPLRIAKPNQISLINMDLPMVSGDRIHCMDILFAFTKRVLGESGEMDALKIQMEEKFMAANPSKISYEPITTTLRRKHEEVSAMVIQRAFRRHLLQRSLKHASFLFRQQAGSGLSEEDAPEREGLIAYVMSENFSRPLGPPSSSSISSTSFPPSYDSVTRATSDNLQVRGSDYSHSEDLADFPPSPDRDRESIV

CC(=O)Oc1ccc(-c2cc(=O)c3c(O)c4c(cc3o2)OC(c2ccccc2)(c2ccccc2)O4)cc1 [10e, 4-(9-Hydroxy-8-oxo-2,2-diphenyl-8H-[1,3]dioxolo[4,5-g]chromen-6-yl)phenyl acetate]
whole-cell patch clamp in transfected HEK293 cells; steady-state inactivation le (Nav1.5): −94.1 ± 1.7 mV (inactivation V1/2 at 30 μM; control −84.4 ± 0.6 mV) | inhibition at 30 µM (Cav1.2 [1]): ~32.6%

COC(=O)C1=C(C)NC(C)=C(C(=O)OC)C1c1ccccc1[N+](=O)[O-] [Nifedipine]
inhibition at 1 µM (Cav1.2 [2]): ~97.9%
